Assay results reported in US12161722B2, “Bifunctional heterocyclic compound having BTK degradation function via ubiquitin proteasome pathway, and use thereof” (KOREA RESEARCH INSTITUTE OF CHEMICAL TECHNOLOGY, priority 2021, dated 2024).

The compounds below were run against T1, WT BTK protein (Homo sapiens, UniProt Q06187) (assay: BTK protein degradation assay (Western blotting), WT BTK). Settings: concentration range accounting for 50% degradation of WT BTK protein, TMD-8 or RAMOS cells, 24 hours.
T1 construct: measured for intracellular BTK protein levels by Western blotting; endogenous in cells; host or cells: TMD-8 or RAMOS cells
Format: cell-based
Description: TMD-8, RAMOS, or 293T BTK MUT (C481S) cells were treated with the synthesized compounds and measured for intracellular BTK protein levels by Western blotting. The protocol of the experiment using TMD-8 cells is as follows.
TMD-8 cells were resuspended in an RPMI1640 medium (Hyclone, SH30027.01, 10% FBS (Hyclone, SV30207.02), 1% penicillin-streptomycin (Welgene, LS 202-02) and the cell suspension was seeded at a density of 1×10^6 cells/mL in an amount of 1 mL per well into 12-well plates.
The 12-well plates were treated as follows. A 10 mM stock was 1/10 diluted in series with DMSO ([…]) to form final concentrations of 10, 1, 0.1, 0.01, 0.001, and 0.0001 mM. The compounds with such concentrations were applied to cells, followed by harvesting the cells 24 hours later. For a negative control, a 1/10 dilution of DMSO in the medium (3 mL DMSO+27 mL medium) was used.
The 1-mL cell culture in each well was passed many times through a pipette and then transferred into a 1.5-mL microtube before centrifugation (500 g, 5 min, 4° C.). The supernatant was discarded and the cell pellet was washed with PBS. After centrifugation (500 g, 5 min, 4° C.) again, the supernatant was discarded and the cell pellet was taken.
A lysis buffer was prepared as follows. RIPA buffer (Biosesang, RC2038-050-00)+0.5 mM PMSF (SIGMA, P7626)+1×Protease/Phosphatase Inhibitor (Cell signaling, 5872S) was added in an amount […] per well and left for 30 minutes on ice (vortexing at 0 and 30 minutes) before sonication (5 cycles of pulse for 10 seconds and rest for 30 seconds, 70% amplification). The supernatant obtained by centrifugation (15000 g, 15 min, 4° C.) was transferred into a new microtube. Cells in each well of 96-well plates were 1/2 diluted with the RIPA buffer and incubated at 37° C. for 30 minutes with […] of a 50:1 mixture of BCA reagents A and B in BCA Protein Assay Kit (iNtRON, 21071). After being cooled for 10 minutes, the 96-well plates were measured for absorbance at 562 nm on the BioTek, SYNERGY H1 microplate reader. Samples were prepared by protein quantification based on the absorbance measurements and then boiled at 70° C. for 10 minutes. The sample buffer used in the case was prepared by mixing a NuPAGE or a Bolt 4× sample buffer (Invitrogen) and its 10× sample reducing agent depending on the gel to be used, and protein dilution was made in a RIPI buffer.
The samples were loaded in the same amount into a NuPAGE or Bolt Bis-tris 4-12% gradient gel and allowed to run therein (200 V, 35 minutes). The separated proteins were transferred onto a […] NC membrane, using Trans-blot Turbo (BIO-RAD) (1.3 A constant, 25V limit, 15 minutes). The membrane was blocked at room temperature for 1 hour with skim milk or Intercept Blocking Buffer (LI-COR, 927-60001):0.1% TBST=1:1. The membrane was incubated with Anti BTK Rabbit (1:1,000 in 5% skim milk/0.2% TBST, size: 77 kDa, Cell signaling Technology) at 4° C. overnight O/N or at room temperature for 2 hours and with Anti GAPDH Rabbit (1:10,000 in 5% BSA/0.2% TBST, size: 36 kDa, GENETEX) and Anti β-actin mouse (1:10,000 in 5% BSA/0.2% TBST, RT, size: 43 kDa, GENETEX) at room temperature for 1 or 3 hours. Then, the membrane was washed three times with 0.5% TBST for 5 minutes each time before incubation with the second antibody Anti-Rabbit IgG (1:5,000 in 5% Skim milk/TBST, CST), IRDye® 800CW Goat anti-Rabbit IgG Secondary Antibody (1:10,000 in 5% skim/TBST, RT 45 min), or IRDye® 680RD Goat anti-Mouse IgG Secondary Antibody (1:10,000 in 5% skim/TBST, RT 45 min) for 45 minutes at room temperature in a rocker. The membrane was washed five times with 0.5% TBST for 5 minutes in each time, followed by detection with LI-COR, Odyssey. In this regard, the detection proceeded, as it was, for house-keeping genes while using SuperSignal West Pico PLUS Chemiluminescent Substrate or SuperSignal West femto Maximum Sensitivity Substrate for BTK detection. […]

T1 sequence (Q06187 whole entry): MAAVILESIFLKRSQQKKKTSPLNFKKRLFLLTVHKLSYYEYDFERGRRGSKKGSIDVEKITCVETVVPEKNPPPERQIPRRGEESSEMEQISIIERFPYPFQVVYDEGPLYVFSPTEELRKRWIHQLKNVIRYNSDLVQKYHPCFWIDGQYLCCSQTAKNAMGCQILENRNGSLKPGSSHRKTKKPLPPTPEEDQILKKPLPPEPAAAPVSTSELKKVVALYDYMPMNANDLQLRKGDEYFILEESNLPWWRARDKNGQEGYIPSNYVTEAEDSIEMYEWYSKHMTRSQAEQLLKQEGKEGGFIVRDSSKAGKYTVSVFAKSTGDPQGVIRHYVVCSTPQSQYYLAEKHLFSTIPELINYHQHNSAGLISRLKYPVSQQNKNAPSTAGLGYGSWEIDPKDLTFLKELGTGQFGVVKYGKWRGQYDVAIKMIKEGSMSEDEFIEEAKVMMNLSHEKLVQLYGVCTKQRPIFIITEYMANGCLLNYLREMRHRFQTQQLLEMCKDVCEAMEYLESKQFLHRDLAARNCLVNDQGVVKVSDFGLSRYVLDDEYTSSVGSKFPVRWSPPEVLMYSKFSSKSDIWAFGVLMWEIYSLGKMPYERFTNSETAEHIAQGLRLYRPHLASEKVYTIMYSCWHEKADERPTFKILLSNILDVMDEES

DC50 [nM]	SMILES
10 to 1000	Cc1cccc(C)c1Nc1nn(C)c2nc(Nc3ccc4c(c3)CN(C(=O)[C@@H]3CCCN3C(=O)CN3CCN(c5ccc6c(c5)C(=O)N(C5CCC(=O)NC5=O)C6=O)CC3)CC4)ncc12 (stereo partly drawn) [Compound 33, 5-(4-(2-((S)-2-(7-((3-((2,6-Dimethylphenyl)amino)-1-methyl-1H-pyrazolo[3,4-d]pyrimidin-6-yl)amino)-1,2,3,4-tetrahydroisoquinoline-2-carbonyl)pyrrolidin-1-yl)-2-oxoethyl)piperazin-1-yl)-2-(2,6-dioxopiperidin-3-yl)isoindoline-1,3-dione]
10 to 1000	Cc1cccc(C)c1Nc1nn(C)c2nc(Nc3ccc4c(c3)CN(C(=O)[C@@H]3CCCN3C(=O)COc3ccc5c(c3)C(=O)N(C3CCC(=O)NC3=O)C5=O)CC4)ncc12 (stereo partly drawn) [Compound 34, 5-(2-((S)-2-(7-((3-((2,6-Dimethylphenyl)amino)-1-methyl-1H-pyrazolo[3,4-d]pyrimidin-6-yl)amino)-1,2,3,4-tetrahydroisoquinoline-2-carbonyl)pyrrolidin-1-yl)-2-oxoethoxy)-2-(2,6-dioxopiperidin-3-yl)isoindoline-1,3-dione]
0.1 to 10	Cc1cccc(C)c1Nc1nn(C)c2nc(Nc3ccc4c(c3)CN(CC3CCN(C(=O)CNc5ccc6c(c5)C(=O)N(C5CCC(=O)NC5=O)C6=O)CC3)CC4)ncc12 (stereo not shown) [Compound 36, 5-((2-(4-((7-((3-((2,6-Dimethylphenyl)amino)-1-methyl-1H-pyrazolo[3,4-d]pyrimidin-6-yl)amino)-3,4-dihydroisoquinolin-2 (1H)-yl)methyl)piperidin-1-yl)-2-oxoethyl)amino)-2-(2,6-dioxopiperidin-3-yl)isoindoline-1,3-dione]
0.1 to 10	Cc1cccc(C)c1Nc1nn(C)c2nc(Nc3ccc4c(c3)CN(CC3CN(C(=O)CN5CCN(c6ccc7c(c6)C(=O)N(C6CCC(=O)NC6=O)C7=O)CC5)C3)CC4)ncc12 (stereo not shown) [Compound 39, 5-(4-(2-(3-((7-((3-((2,6-Dimethylphenyl)amino)-1-methyl-1H-pyrazolo[3,4-d]pyrimidin-6-yl)amino)-3,4-dihydroisoquinolin-2 (1H)-yl)methyl)azetidin-1-yl)-2-oxoethyl)piperazin-1-yl)-2-(2,6-dioxopiperidin-3-yl)isoindoline-1,3-dione]

The remaining lines, values behind:

SMILES	DC50 [nM]
Cc1cccc(C)c1Nc1nn(C)c2nc(Nc3ccc4c(c3)CN(CC3CN(C(=O)C5CCN(c6ccc7c(c6)C(=O)N(C6CCC(=O)NC6=O)C7=O)CC5)C3)CC4)ncc12 (stereo not shown) [Compound 40, 5-(4-(3-((7-((3-((2,6-Dimethylphenyl)amino)-1-methyl-1H-pyrazolo[3,4-d]pyrimidin-6-yl)amino)-3,4-dihydroisoquinolin-2 (1H)-yl)methyl)azetidine-1-carbonyl)piperidin-1-yl)-2-(2,6-dioxopiperidin-3-yl)isoindoline-1,3-dione]	0.1 to 10
Cc1cccc(C)c1Nc1nn(C)c2nc(Nc3cccc(CNCC4CCN(c5ccc6c(c5)C(=O)N(C5CCC(=O)NC5=O)C6=O)CC4)c3)ncc12 (stereo not shown) [Compound 41, 5-(4-(((3-((3-((2,6-Dimethylphenyl)amino)-1-methyl-TH-pyrazolo[3,4-d]pyrimidin-6-yl)amino)benzyl)amino)methyl)piperidin-1-yl)-2-(2,6-dioxopiperidin-3-yl)isoindoline-1,3-dione]	10 to 1000
Cc1cccc(C)c1Nc1nn(C)c2nc(Nc3cccc(CNCC4CCN(C(=O)C5CCN(c6ccc7c(c6)C(=O)N(C6CCC(=O)NC6=O)C7=O)CC5)CC4)c3)ncc12 (stereo not shown) [Compound 42, 5-(4-(4-(((3-((3-((2,6-Dimethylphenyl)amino)-1-methyl-1H-pyrazolo[3,4-d]pyrimidin-6-yl)amino)benzyl)amino)methyl)piperidine-1-carbonyl)piperidin-1-yl)-2-(2,6-dioxopiperidin-3-yl)isoindoline-1,3-dione]	0.1 to 10
